Laboratory results taken from patent US20070142356A1, “Association of a sinus node If curent inhibitor and a calcium inhibitor, and pharmaceutical compositions containing it” (LES LABORATOIRES SERVIER, priority 2005, published 2007).

Tested on: patients being treated with dihydropyridine type calcium antagonists who still complained of painful angina pectoris attacks
Assay: Clinical studies 019 and 021: angina attacks in patients on dihydropyridines given concomitant ivabradine
Type: in vivo
Conditions: for Change in the number of angina pectoris attacks, %: after 1 year of ivabradine versus inclusion; for Number of angina pectoris attacks (per week), after treatment: patients on dihydropyridines on inclusion, ivabradine for 1 year
Text: Two clinical studies carried out in patients being treated with dihydropyridine type calcium antagonists who still complained of painful angina pectoris attacks (despite the calcium antagonist) have shown that concomitant treatment with ivabradine makes it possible to reduce these attacks very substantially (by about 60%).

## COc1cc2c(cc1OC)CC(=O)N(CCCN(C)C[C@H]1Cc3cc(OC)c(OC)cc31)CC2 [ivabradine, 3-{3-[{[(7S)-3,4-dimethoxy-bicyclo[4.2.0]octa-1,3,5-trien-7-yl]methyl}(methyl)amino]propyl}-7,8-dimethoxy-1,3,4,5-tetrahydro-2H-3-benzazepin-2-one]
Study 019, n = 27
  Change in the number of angina pectoris attacks, %: −61.4%
  Number of angina pectoris attacks (per week), after treatment: 0.7 ± 1.3 per week
Study 021, n = 114
  Change in the number of angina pectoris attacks, %: −58.9%
  Number of angina pectoris attacks (per week), after treatment: 0.9 ± 2.9 per week
Two clinical studies, ivabradine concomitant with dihydropyridine calcium antagonist
  Reduction of painful angina pectoris attacks: about 60%
